Legend:
[1] = target: T1, HbA (Homo sapiens, UniProt P69905); test: X-ray diffraction analysis of HbA/drug complexes (difference electron-density maps); format: binding; conditions: HbA tetramer/drug molar ratio 1:5 (TB17 1:10), Schiff base reduced, deoxygenated crystals
T1 construct: co-crystals with compounds
Protocol: Reaction of the drug compounds with HbA, crystallization and X-ray data collection of the HbA/drug complexes were performed according to the procedures of Wireko et al., Proc. Natl. Acad. Sci. USA, 1991, 88, 2209, which is herein incorporated by reference, with some slight modifications. Freshly prepared solutions of the synthesized compounds in potassium phosphate buffer were incubated at oxy HbA tetramer/drug molar ratios of 1:5 or 1:10 for at least 24 hours. Sodium cyanoborohydrie in phosphate buffer was added in 10- to 50-fold molar excess of HbA tetramer to reduce the Schiff's base adduct for at least 24 hours. The deoxygenated HbA/compound complexes were set up for crystallizations following the procedures described in Perutz et al., Crys. Growth, 1968, 2, 54, which is herein incorporated by reference, with some slight modifications. X-ray quality crystals for all complexes were obtained after three to seven days. Crystals of TB19 (discussed below) grown with HbA incubated and reduced under deoxygenated conditions was also used for data collection.
X-ray diffraction data for the MS2 complex (discussed below) was collected using a Rigaku AFC5R rotating anode diffractometer to a resolution of 4Å. All hk±1 reflections and their Friedel pairs were collected. One crystal, dimensions 0.3 to 1.2 mm was used for collection. Diffraction data for the rest of the complexes were collected with a Rigaku AFC5R rotating anode diffractometer equipped with an R-axis IIC image plate system, all to a resolution of 1.94A. Crystals of linear dimensions 0.2 to 0.5 mm were used. Data reduction, structure solution and calculation of Fourier difference electron-density maps were as described in Wireko et al., Proc. Natl. Acad. Sci. USA, 1991, 88, 2209.
Models of the compounds created with MMOD and minimized with MM2 force field were fitted to the electron-density by using FRODO on an EVANS and SUTHERLAND PS390 graphic station.
X-ray diffraction analyses were used to study several of the new drug complexes including MS1, MS2, TB8, TB10, TB17, TB19, TB32, TB36, TB62, and TB63. The difference electron-density maps of all complexes discussed are that of the HbA tetramer/drug molar ratio of 1:5, except TB17 which is 1:10. All drug molecules contain at least two functionalities, an aldehyde and a carboxylate, common to all of them. […] The only exception was MS2 where only one of the carboxylate oxygens was involved in the salt bridge interaction. The above binding site, which is common to all of the complexes, will be referred to as the α-cleft binding site. Some of the above drug compounds have additional functional groups which are also involved in additional interaction with other HbA residues, including hydrogen bonding, van der Waals interaction, and a second covalent bonding.
All complexes have two molecules of the drug compounds bound at the above-mentioned α-cleft site and are related by the two fold noncrystallographic axis. These sites are further noted as the α1-cleft site (Val-1α1 binding site), and the α2-cleft site (Val-1α2 binding site). In all complexes, the electron density at the α2-cleft site were slightly bigger and better defined than the electron density at the α1-cleft site. In addition to the binding at the α-cleft site, some of the drug compounds also bind to other secondary sites, including other sites in the α-cleft water cavity, the β-cleft water cavity located at Val-1β, and the Hb polymer contact site located near the residues His-116β and His-117β.

[2] = target: T2, human hemoglobin (HbA) (Homo sapiens, UniProt P69905); test: Oxygen equilibrium studies of hemoglobin solutions (Hem-O-Scan oxygen dissociation curves); format: biochemical; conditions: hemoglobin solution
T2 construct: hemoglobin solution
Source text: In blood, hemoglobin is in equilibrium between two allosteric structures. In the "T" (for tense) state, hemoglobin is de-oxygenated. In the "R" (for relaxed) state, hemoglobin is oxygenated. An oxygen equilibrium curve can be scanned using well known equipment such as the Aminco™ Hem-o-scan to evaluate the affinity and degree of cooperativity (allosteric action) of hemoglobin. In the scan, the Y-axis plots the percent of hemoglobin oxygenation and the X-axis plots the partial pressure of oxygen in millimeters of mercury (mm Hg). If a horizontal line is drawn from the 50% oxygen saturation point to the scanned curve and a vertical line is drawn from the intersection point of the horizontal line with the curve to the partial pressure X-axis, a value commonly known as the P50 is determined. This is the pressure when the hemoglobin is 50% saturated with oxygen. By comparing the P50 value for treated hemoglobin to the P50 value for untreated normal adult human hemoglobin (HbA) under physiological conditions (i.e., 37° C., pH=7.4, and partial carbon dioxide pressure of 40 mm Hg), the degree of allosteric modification can be determined. When the P50 value for treated hemoglobin is lower than for HbA, a high oxygen affinity hemoglobin is indicated and the curve is said to be "left-shifted". Conversely, when the P50 value for treated hemoglobin is higher than for HbA, a low oxygen affinity hemoglobin is indicated and the curve is said to be "right-shifted".
In the oxygen equilibrium studies, the HbA was further purified by dialysis against pH 8.6. Tris buffer (50 mM, containing 40 mg EDTA/L) to remove any residual A2 hemoglobin. The pure HbA fraction was concentrated by using a Schleicher and Schuell colloidion bag apparatus, available from Schleicher and Schuell, Inc., with HEPES buffer (50 mM, pH 7.4) as the exchange buffer. The Hb concentration was determined by using the cyanmet method. The Hb concentration at this point was usually found to be around 35 g% (approximately 5.4 mM). Less than 5% methemoglobin was noted even after several days at 4° C. Oxygen dissociation curves were recorded on an AMINCO Hem-0-Scan oxygen dissociation analyzer available from Travenol Laboratories.
All compounds were dissolved in 50 mM HEPES buffer, pH 7.4, to give 20 mM of drug solution. The Hb (5.4 mM, in HEPES, pH 7.4) and the test compounds (20 mM) were mixed in 1:1 volume ratio (50μL of Hb+50μL of compound solution) to give final concentrations of 2.7 mM and 10mM, respectively (a molar ratio of test compound to hemoglobin of approximately 4:1). A control experiment was prepared by the addition of 50 μL of Hb to 50 μL of HEPES buffer. The mixtures were incubated at 4° C. for two hours before running the oxygen dissociation curves.

[3] = system: whole blood; test: Whole-blood studies: effect on the oxygen affinity of whole blood; format: cell-based; conditions: for P50 D (aver.): heparinized whole blood mixed 1:1 with test compound solution, equilibrated 1 hour at 37° C., P50 C 25.0; for direction of shift of the oxygen equilibrium curve / ΔP50 D: whole blood; for ΔP50 D: 1 hour at 37° C., P50 D - P50 C

Compound | binding sites in HbA seen in the difference electron-density map [1] | direction of shift of the oxygen equilibrium curve [2] | P50 D (aver.) ([2]; Hb 2.7 mM, compound 10 mM (approx. 4:1), 50 mM HEPES pH 7.4, incubated at 4° C. for two hours) | ΔP50 (P50 D - P50 C) ([2]; Hb 2.7 mM, compound 10 mM, 50 mM HEPES pH 7.4, positive = right shift) | P50 D (aver.) [3] | direction of shift of the oxygen equilibrium curve [3] | ΔP50 D [3]
O=Cc1ccc(OCCCCOc2ccc(C=O)cc2C(=O)O)c(C(=O)O)c1 [TB19, 1,4-Bis(2-carboxy-4-formylphenoxy)-butane] | binding exclusively at the two symmetry-relatedα-cleft sites | right shift | 42.0 mm Hg | 20.0 mm Hg | 19.5 mm Hg | left shift | -5.5 mm Hg
O=Cc1ccc(OCc2ccccc2)c(C(=O)O)c1 [TB17, 2-benzyloxy-5-formylbenzoic acid] | three molecules of TB17 reacted to the Hb tetramer | right shift |  |  | 14.5 mm Hg | left shift | -9.5 mm Hg

From US5599974A, “Aldehydic agents for allosteric modification of hemoglobin” (Center for Innovative Technology, priority 1994, dated 1997)
